Data on 20 compounds can be found in patent publication US20120083476A1, “HETEROARYL-SUBSTITUTED SPIROCYCLIC DIAMINE UREA MODULATORS OF FATTY ACID AMIDE HYDROLASE” (Janssen Pharmaceutica NV, priority 2009, published 2012).

By IC50 is commonly meant the concentration that inhibits the measured activity by half.

Where a name gives a salt, the structure may show the parent alone. Read-outs that look alike come from different tables or passages of the source. Some results are limits rather than exact numbers.

The target of one assay is T1, Rat FAAH (Rattus norvegicus, UniProt P97612).
T1 construct: expressed in transfected cells; host or cells: SK-N-MC cells stably transfected with rat FAAH cDNA (G418 selection)
T1 sequence (P97612 1-579): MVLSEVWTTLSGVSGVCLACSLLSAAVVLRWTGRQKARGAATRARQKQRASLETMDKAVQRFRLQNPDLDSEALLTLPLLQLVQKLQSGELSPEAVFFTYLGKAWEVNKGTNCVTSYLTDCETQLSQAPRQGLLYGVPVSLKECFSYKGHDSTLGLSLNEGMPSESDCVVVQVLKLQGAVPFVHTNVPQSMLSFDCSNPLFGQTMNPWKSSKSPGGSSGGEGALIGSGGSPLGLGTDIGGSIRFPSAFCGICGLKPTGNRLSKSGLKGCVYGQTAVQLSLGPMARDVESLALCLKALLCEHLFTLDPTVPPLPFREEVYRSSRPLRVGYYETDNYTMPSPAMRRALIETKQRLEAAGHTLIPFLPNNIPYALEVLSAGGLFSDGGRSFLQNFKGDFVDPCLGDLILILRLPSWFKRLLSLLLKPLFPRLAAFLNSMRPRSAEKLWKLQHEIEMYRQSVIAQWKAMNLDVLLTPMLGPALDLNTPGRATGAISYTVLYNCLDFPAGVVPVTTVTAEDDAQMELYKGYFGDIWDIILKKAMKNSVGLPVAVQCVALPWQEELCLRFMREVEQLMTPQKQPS
The assay is described as follows: Assay Method 2: rat FAAH assay (3H-anandamide hydrolysis in cell homogenate). The format is biochemical. The essentials:
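Homogenates of T84 cells or SK-N-MC cells stably transfected with rat FAAH, in pH 9 Tris/EDTA/glycerol/Triton buffer, incubated 1 h at room temperature with 3H-anandamide. Released labeled ethanolamine separated from substrate on activated charcoal and counted by scintillation; values averaged over runs.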

The next assay has as its target T2, FAAH (Homo sapiens, UniProt O00519).
T2 sequence (O00519 1-579): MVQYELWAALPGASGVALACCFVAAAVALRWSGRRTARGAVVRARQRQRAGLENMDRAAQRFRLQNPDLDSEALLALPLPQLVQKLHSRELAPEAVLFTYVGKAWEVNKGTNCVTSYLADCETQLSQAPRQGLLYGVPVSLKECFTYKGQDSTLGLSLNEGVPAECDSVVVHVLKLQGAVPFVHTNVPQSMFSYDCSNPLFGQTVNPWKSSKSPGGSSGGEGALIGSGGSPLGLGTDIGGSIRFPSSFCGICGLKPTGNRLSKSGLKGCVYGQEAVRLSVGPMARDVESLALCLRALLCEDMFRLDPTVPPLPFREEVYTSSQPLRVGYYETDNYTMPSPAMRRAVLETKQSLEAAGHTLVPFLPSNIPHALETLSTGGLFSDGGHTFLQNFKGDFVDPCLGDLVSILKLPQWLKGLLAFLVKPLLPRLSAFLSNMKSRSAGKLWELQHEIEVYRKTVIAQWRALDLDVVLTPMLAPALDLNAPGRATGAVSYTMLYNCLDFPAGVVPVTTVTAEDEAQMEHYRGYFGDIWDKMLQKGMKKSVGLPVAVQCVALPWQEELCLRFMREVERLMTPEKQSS
The assay is described as follows: Assay Method 1: human FAAH assay (3H-anandamide hydrolysis in cell homogenate). The format is biochemical. Also on record: expressed in transfected cells; host or cells: SK-N-MC cells stably transfected with human FAAH cDNA (G418 selection); alternatively T84 cell pellets. The essentials:
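Homogenates of T84 cells or SK-N-MC cells stably transfected with human FAAH, in pH 9 Tris/EDTA buffer with 0.02% Triton X-100. Incubated 1 h at rt with compound and 80 nM (final) [3H-ethanolamine]-anandamide. Released 3H-ethanolamine separated on charcoal filters and counted by scintillation.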

As for `COc1nccc(NC(=O)N2CC3(CCN(Cc4cccc(Oc5ccc(Cl)cc5)c4)CC3)C2)n1` [Example 72, 7-[3-(4-Chloro-phenoxy)-benzyl]-2,7-diaza-spiro[3.5]nonane-2-carboxylic acid (2-methoxy-pyrimidin-4-yl)-amide, trifluoroacetic acid salt], the IC50 at Rat FAAH (read-out: Assay 2 IC50) turned out to be 60 nM; at FAAH (read-out: Assay 1 IC50), 1700 nM.

For the compound `O=C(Nc1cncc(F)c1)N1CC2(CCN(Cc3cccc(Oc4ccc(Cl)cc4)c3)CC2)C1` [Example 73, 7-[3-(4-Chloro-phenoxy)-benzyl]-2,7-diaza-spiro[3.5]nonane-2-carboxylic acid (5-fluoro-pyridin-3-yl)-amide, trifluoroacetic acid salt], the values for the IC50 at Rat FAAH (read-out: Assay 2 IC50) and at FAAH (read-out: Assay 1 IC50) were 450 nM and 80 nM, respectively.

Turning to `O=C(Nc1ccnc2[nH]ccc12)N1CC2(CCN(Cc3cccc(Oc4ccc(Cl)cc4)c3)CC2)C1` [Example 74, 7-[3-(4-Chloro-phenoxy)-benzyl]-2,7-diaza-spiro[3.5]nonane-2-carboxylic acid (1H-pyrrolo[2,3-b]pyridin-4-yl)-amide, trifluoroacetic acid salt], the concentration for half-maximal inhibition (IC50) is 2000 nM on Rat FAAH (read-out: Assay 2 IC50) and over 10000 nM at FAAH (read-out: Assay 1 IC50).

As to `Cc1nn(C)c2ncc(NC(=O)N3CC4(CCN(Cc5cccc(Oc6ccc(Cl)cc6)c5)CC4)C3)cc12` [Example 75, 7-(3-(4-chlorophenoxy)benzyl)-N-(1,3-dimethyl-1H-pyrazolo[3,4-b]pyridin-5-yl)-2,7-diazaspiro[3.5]nonane-2-carboxamide, trifluoroacetic acid salt], the IC50 at Rat FAAH (read-out: Assay 2 IC50) turned out to be 400 nM; at FAAH (read-out: Assay 1 IC50) it was 2500 nM.

Consider `Cc1cc(NC(=O)N2CC3(CCN(Cc4cccc(Oc5ccc(Cl)cc5)c4)CC3)C2)no1` [Example 76, 7-(3-(4-chlorophenoxy)benzyl)-N-(5-methylisoxazol-3-yl)-2,7-diazaspiro[3.5]nonane-2-carboxamide, trifluoroacetic acid salt], for which the IC50 on Rat FAAH (read-out: Assay 2 IC50) and on FAAH (read-out: Assay 1 IC50) was over 10000 nM throughout.

As for `Cc1nc2ccc(NC(=O)N3CC4(CCN(Cc5cccc(Oc6ccc(Cl)cc6)c5)CC4)C3)cc2s1` [Example 77, 7-(3-(4-chlorophenoxy)benzyl)-N-(2-methylbenzo[d]thiazol-6-yl)-2,7-diazaspiro[3.5]nonane-2-carboxamide, trifluoroacetic acid salt], the 50% inhibitory concentration (IC50) on Rat FAAH (read-out: Assay 2 IC50) and on FAAH (read-out: Assay 1 IC50) was over 10000 nM in each case.

As to `Cc1cc(NC(=O)N2CC3(CCN(Cc4cccc(Oc5ccc(Cl)cc5)c4)CC3)C2)n[nH]1` [Example 78, 7-(3-(4-chlorophenoxy)benzyl)-N-(5-methyl-1H-pyrazol-3-yl)-2,7-diazaspiro[3.5]nonane-2-carboxamide, trifluoroacetic acid salt], the IC50 at Rat FAAH (read-out: Assay 2 IC50) and at FAAH (read-out: Assay 1 IC50) was over 10000 nM throughout.

For `Cc1cncc(NC(=O)N2CC3(CCN(Cc4cccc(Oc5ccc(Cl)cc5)c4)CC3)C2)c1` [Example 79, 7-(3-(4-chlorophenoxy)benzyl)-N-(5-methylpyridin-3-yl)-2,7-diazaspiro[3.5]nonane-2-carboxamide, trifluoroacetic acid salt], the half-inhibitory concentration (IC50) was 30 nM at Rat FAAH (read-out: Assay 2 IC50) and 70 nM on FAAH (read-out: Assay 1 IC50).

In the case of `O=C(Nc1cccnc1F)N1CC2(CCN(Cc3cccc(Oc4ccc(Cl)cc4)c3)CC2)C1` [Example 80, 7-(3-(4-chlorophenoxy)benzyl)-N-(2-fluoropyridin-3-yl)-2,7-diazaspiro[3.5]nonane-2-carboxamide, trifluoroacetic acid salt], the IC50 on Rat FAAH (read-out: Assay 2 IC50) was 570 nM; on FAAH (read-out: Assay 1 IC50), 140 nM.

For `O=C(Nc1ccc(N2CCCCC2)nc1)N1CC2(CCN(Cc3cccc(Oc4ccc(Cl)cc4)c3)CC2)C1` [Example 81, 7-(3-(4-chlorophenoxy)benzyl)-N-(6-(piperidin-1-yl)pyridin-3-yl)-2,7-diazaspiro[3.5]nonane-2-carboxamide, trifluoroacetic acid salt], the half-maximal inhibitory concentration (IC50) at Rat FAAH (read-out: Assay 2 IC50) stood at 3000 nM; on FAAH (read-out: Assay 1 IC50), 1600 nM.

As for `O=C(Nc1cncc(Br)c1)N1CC2(CCN(Cc3cccc(Oc4ccc(Cl)cc4)c3)CC2)C1` [Example 82, N-(5-bromopyridin-3-yl)-7-(3-(4-chlorophenoxy)benzyl)-2,7-diazaspiro[3.5]nonane-2-carboxamide, trifluoroacetic acid salt], the IC50 turned out to be 20 nM at Rat FAAH (read-out: Assay 2 IC50) and 280 nM on FAAH (read-out: Assay 1 IC50).

Turning to `N#Cc1ccncc1NC(=O)N1CC2(CCN(Cc3cccc(Oc4ccc(Cl)cc4)c3)CC2)C1` [Example 84, 7-(3-(4-chlorophenoxy)benzyl)-N-(4-cyanopyridin-3-yl)-2,7-diazaspiro[3.5]nonane-2-carboxamide], the IC50 at Rat FAAH (read-out: Assay 2 IC50) was found to be 10 nM; on FAAH (read-out: Assay 1 IC50), 110 nM.

For the compound `Cc1ccncc1NC(=O)N1CC2(CCN(Cc3cccc(Oc4ccc(Cl)cc4)c3)CC2)C1` [Example 85, 7-(3-(4-chlorophenoxy)benzyl)-N-(4-methylpyridin-3-yl)-2,7-diazaspiro[3.5]nonane-2-carboxamide], the IC50 stood at 40 nM at Rat FAAH (read-out: Assay 2 IC50) and 80 nM against FAAH.

As to `O=C(Nc1cnccc1C(F)(F)F)N1CC2(CCN(Cc3cccc(Oc4ccc(Cl)cc4)c3)CC2)C1` [Example 86, 7-(3-(4-chlorophenoxy)benzyl)-N-(4-(trifluoromethyl)pyridin-3-yl)-2,7-diazaspiro[3.5]nonane-2-carboxamide], the IC50 on Rat FAAH (read-out: Assay 2 IC50) was determined as 40 nM; at FAAH (read-out: Assay 1 IC50), 420 nM.

Turning to `O=C(Nc1ccc(-n2nccn2)nc1)N1CC2(CCN(Cc3ccc4c(c3)OC(F)(F)O4)CC2)C1` [Example 88, 7-(2,2-Difluoro-benzo[1,3]dioxol-5-ylmethyl)-2,7-diaza-spiro[3.5]nonane-2-carboxylic acid (6-[1,2,3]triazol-2-yl-pyridin-3-yl)-amide], the results for the concentration for half-maximal inhibition (IC50) at Rat FAAH (read-out: Assay 2 IC50) and on FAAH (read-out: Assay 1 IC50) were over 10000 nM and 4000 nM, respectively.

As to `O=C(Nc1cccnc1)N1CCC2(CCN(Cc3cccc(Oc4ccc(Cl)cc4)c3)CC2)C1` [Example 90, 8-[3-(4-Chloro-phenoxy)-benzyl]-2,8-diaza-spiro[4.5]decane-2-carboxylic acid pyridin-3-ylamide, trifluoroacetic acid salt], the IC50 on Rat FAAH stood at 430 nM; against FAAH, 2000 nM.

In the case of `O=C(Nc1ccc(-n2nccn2)nc1)N1CCC2(CCN(Cc3cccc(Oc4ccc(Cl)cc4)c3)CC2)C1` [Example 91, 8-[3-(4-Chloro-phenoxy)-benzyl]-2,8-diaza-spiro[4.5]decane-2-carboxylic acid (6-[1,2,3]triazol-2-yl-pyridin-3-yl)-amide, trifluoroacetic acid salt], the concentration for half-maximal inhibition (IC50) stood at 260 nM on Rat FAAH (read-out: Assay 2 IC50) and 200 nM at FAAH (read-out: Assay 1 IC50).

Take `O=C(Nc1noc2ccccc12)N1CCC2(CCN(Cc3cccc(Oc4ccc(Cl)cc4)c3)CC2)C1` [Example 92, 8-[3-(4-Chloro-phenoxy)-benzyl]-2,8-diaza-spiro[4.5]decane-2-carboxylic acid benzo[d]isoxazol-3-ylamide, trifluoroacetic acid salt]: the IC50 on Rat FAAH (read-out: Assay 2 IC50) came out at 20 nM; at FAAH (read-out: Assay 1 IC50), 160 nM.

Take `O=C(Nc1cccnc1)N1CCC2(CCCN2Cc2cccc(Oc3ccc(Cl)cc3)c2)CC1` [Example 93, 1-[3-(4-Chloro-phenoxy)-benzyl]-1,8-diaza-spiro[4.5]decane-8-carboxylic acid pyridin-3-ylamide]: the half-inhibitory concentration (IC50) at Rat FAAH (read-out: Assay 2 IC50) amounted to 480 nM; at FAAH (read-out: Assay 1 IC50) it was 1100 nM.

As to `O=C(Nc1ccc(-n2nccn2)nc1)N1CCC2(CCCN2Cc2cccc(Oc3ccc(Cl)cc3)c2)CC1` [Example 94, 1-[3-(4-Chloro-phenoxy)-benzyl]-1,8-diaza-spiro[4.5]decane-8-carboxylic acid (6-[1,2,3]triazol-2-yl-pyridin-3-yl)-amide], the IC50 on Rat FAAH (read-out: Assay 2 IC50) is 580 nM; at FAAH (read-out: Assay 1 IC50), 370 nM.
